Patent publication US9464064B2, “HCV helicase inhibitors and methods of use thereof” (University of Kansas, priority 2011, dated 2016)

Target: T1, HCV NS3 helicase NS3h_1b(con1) (Hepatitis C virus genotype 1b, UniProt Q9WMX2)
T1 construct: truncated C-terminally His-tagged NS3 proteins lacking the N-terminal protease, called NS3h; His-tag (C); made in house
Experiment: MBHA screen of NCI mechanistic set library at 20 μM (percent inhibition, compound interference)
Type: biochemical
Conditions: compounds at 20 μM; for Inh. (%) (Inhibition): calculated from Equation 1
Procedure, shortened: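 Molecular beacon-based DNA unwinding assay; compounds screened at 20 μM in triplicate, with DMSO-only negative and 500 nM dT20 positive controls. Fluorescence (ex 643/em 670 nm) was read before and 30 min after adding ATP to 1 mM. Percent inhibition came from the change relative to DMSO controls; interference from pre-ATP fluorescence versus DMSO controls.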

[1] = MBHA with DNA substrate, assay interference calculated with Equation 2
[2] = assay interference calculated with Equation 2 (fluorescence vs DMSO-only controls before ATP)

T1 sequence (Q9WMX2 1192-1657): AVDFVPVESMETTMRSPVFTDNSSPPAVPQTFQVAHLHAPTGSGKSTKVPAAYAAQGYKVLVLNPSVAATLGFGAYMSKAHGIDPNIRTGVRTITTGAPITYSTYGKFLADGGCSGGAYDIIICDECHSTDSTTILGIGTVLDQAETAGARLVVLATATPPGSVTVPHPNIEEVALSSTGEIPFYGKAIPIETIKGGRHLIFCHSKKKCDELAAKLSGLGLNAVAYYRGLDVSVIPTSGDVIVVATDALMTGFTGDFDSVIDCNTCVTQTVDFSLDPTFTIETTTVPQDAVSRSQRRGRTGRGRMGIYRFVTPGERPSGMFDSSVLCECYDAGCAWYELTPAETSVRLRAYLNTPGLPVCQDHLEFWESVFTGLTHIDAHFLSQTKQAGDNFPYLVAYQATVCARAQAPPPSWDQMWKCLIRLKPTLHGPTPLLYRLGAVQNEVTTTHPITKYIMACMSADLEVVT

Int.* (Ratio) (Interference) [1] | Inh. (%) (Inhibition) (MBHA with DNA substrate) | Inh. (%) (Inhibition) (MBHA with a DNA substrate) | Int.* (Ratio) (Interference) [2] | SMILES
0.89 | 28.1 | – | – | COc1ccc(OC)c2nc3c(C(=O)NCCN(C)C)cccc3nc12.Cl [Compound 678917]
– | – | −7.0 | 1.17 | CN(C)c1ccc(/C=C2/C=Cc3ccccc32)cc1 [Compound 80087]
0.86 | −14.3 | – | – | Cc1nc2c(o1)C(=O)c1ccccc1C2=Nc1ccccc1 [Compound 650573]
1.05 | −13.3 | – | – | CN(C)CCN1C(=O)c2cccc3cc(N)cc(c23)C1=O [Compound 308847]
0.92 | 14.5 | – | – | C/C(NNC(=O)c1ccccc1O)=C1\C=Nc2ccccc2S1 [Compound 635121]
0.89 | −10.9 | – | – | CCCCCCCCCCCCCCCCOP(=O)([O-])OCC[N+](C)(C)C [Compound 605583]
0.97 | −1.8 | – | – | CC(C)(C)OC(=O)NC(Cc1ccccc1)C(=O)OCN1C(=O)C2C3C=CC(C2C1=O)C1C2C(=O)N(COC(=O)C(Cc4ccccc4)NC(=O)OC(C)(C)C)C(=O)C2C31 (stereo not drawn) [Compound 607316]
– | – | 10.9 | 1.09 | CCCC(=O)OCC1OC(n2ccc(N)nc2=O)C(OC(=O)CCC)C1OC(=O)CCC (stereo not drawn) [Compound 138429]
0.93 | −1.4 | – | – | Cc1cc(N(C)C)ccc1N=Nc1ccc2ncccc2c1 [Compound 680516]
1.17 | 2.7 | – | – | O=C1C(c2cnc3ccccc3n2)=C(O)c2ccccc21 [Compound 634224]
0.90 | 68.8 | – | – | O=[N+]([O-])c1cccc2c(N=Nc3ccc4ccccc4c3O)c(O)cc(S(=O)(=O)[O-])c12.[Na+] [Compound 85561]
0.98 | 1.1 | – | – | Cc1cc(NC(=O)NC(=O)c2ccccc2NC(=O)CN)ccc1Oc1ncc(Br)cn1.Cl [Compound 654259]
0.93 | −7.3 | – | – | COC(=O)C(=O)C(C(=O)Nc1cccc(C)c1C)C1Sc2ccccc2NC1=O (stereo not drawn) [Compound 635833]
0.98 | −7.5 | – | – | Cc1cc(-c2nc3ccccc3s2)ccc1N [Compound 674495]
0.94 | −14.8 | – | – | O=C1/C(=C/c2ccc([N+](=O)[O-])cc2)Sc2scc(-c3cccc([N+](=O)[O-])c3)[n+]21.[Cl-] [Compound 657598]
1.12 | −9.7 | – | – | O=C1C(=O)c2ccccc2C(O)=C1CC=C(Cl)Cl [Compound 126771]
1.06 | 5.6 | – | – | O=C1c2ccccc2C(=O)c2c(O)c(O)cc(O)c21 [Compound 10447]
– | – | −23.8 | 0.97 | CC(=O)NC1C(OCc2ccccc2)OC(CO)C(O)C1OC(C)C(=O)NC(C(=O)NC(CCC(=O)NCCCCNc1c2ccccc2nc2cccc([N+](=O)[O-])c12)C(N)=O)C(C)C (stereo not drawn) [Compound 697468]
1.00 | 1.4 | – | – | Cc1ccc2[nH]c(O)c(N=Nc3ccccc3[N+](=O)[O-])c2c1 [Compound 117915]
1.00 | −14.2 | – | – | CCCCCCCCCc1c(Cl)nc(Cl)nc1Cl [Compound 92510]
1.06 | −14.5 | – | – | COc1cc(/C=C2\S/C(=N/Nc3nc(-c4ccc(Br)cc4)cs3)NC2=O)cc(OC)c1OC [Compound 657457]

Int.* (Ratio) (Interference) [1] | Inh. (%) (Inhibition) (MBHA with DNA substrate) | Inh. (%) (Inhibition) (MBHA with a DNA substrate) | Int.* (Ratio) (Interference) [2] | SMILES
1.02 | −17.5 | – | – | COc1cc(/C=C(\C)c2ccc3c(c2)OCO3)cc(OC)c1OC [Compound 648422]
– | – | −6.4 | 0.95 | COc1ccc2c(c1)C=C([N+](=O)[O-])C(C1OC(C)(C)OC1C1COC(C)(C)O1)O2 (stereo not drawn) [Compound 618261]
– | – | 10.3 | 0.91 | N[C@H](C(=O)O)[C@@H]1CC(Cl)=NO1 [Compound 163501]
0.91 | 17.7 | – | – | Cc1cc(=O)[nH]c(NN2C(Cl)C(=O)C2c2cccc(Cl)c2)n1 (stereo not drawn) [Compound 653012]
0.93 | −14.9 | – | – | COc1ccc(-n2/c(=N/C(=S)N(C)C)ss/c2=N\C(=S)N(C)C)cc1 [Compound 622586]
1.01 | −2.4 | – | – | CCCC[S+]([O-])CC(CO)NC(=O)/C=C\c1c(C)[nH]c(=O)[nH]c1=O (stereo not drawn) [Compound 241509]
1.06 | 2.3 | – | – | CCOC(=O)CCn1ncc(Cl)c(Cl)c1=O [Compound 634471]
0.84 | 12.6 | – | – | CCCCCCCC/C=C\CCCCCCCC(=O)O [Compound 9856]
– | – | −22.4 | 1.08 | CCOC(=O)c1sc2[n+](c1C)C(=O)/C(=C/c1ccc([N+](=O)[O-])cc1)S2.[Cl-] [Compound 658293]
0.81 | 32.6 | – | – | C=C1C(=O)O[C@@H]2/C=C(/C)C(=O)C[C@H]3OC(C)(C)O[C@]3(C)C[C@@H](OC(=O)/C(C)=C\C)[C@@H]12 [Compound 329696]
– | – | −22.6 | 0.93 | O=C1c2ccccc2C(=O)c2sc(Nc3ccc(Cl)c(Cl)c3)nc21 [Compound 631521]
1.01 | 4.2 | – | – | COC(=O)C1=CC(=O)C(C(=O)Nc2ccc(OC)cc2)C(c2ccccc2)O1 (stereo not drawn) [Compound 634473]
0.89 | 16.8 | – | – | CC(C)=CC1C(C(=O)O)C1(C)C (stereo not drawn) [Compound 11779]
– | – | −3.7 | 1.08 | CC[C@H](C)C(=O)O[C@H]1CCC=C2C=C[C@H](C)[C@H](CC[C@@H]3C[C@@H](O)CC(=O)O3)[C@H]21 [Compound 281245]
0.97 | 18.4 | – | – | Oc1ccc2ccccc2c1N=Nc1cccc2ccccc12 [Compound 45575]
– | – | 9.6 | 0.90 | Cc1nc(-n2nc(-c3ccccc3)cc2-c2ccccc2)sc1C(=O)/C=C/c1ccc(Cl)c(Cl)c1 [Compound 640584]
0.95 | 4.4 | – | – | O=c1c(Br)c(-c2ccccc2)[nH]c2ccccc12 [Compound 12825]
1.01 | 5.1 | – | – | Cc1c(Cl)ccc2c1NC(=O)C2(O)C(C(=O)c1ccccc1)c1ccccc1 (stereo not drawn) [Compound 635321]
0.85 | 22.9 | – | – | C=C(CN(C)C)C(=O)c1ccccc1Cl.Cl [Compound 382007]
0.92 | 27.4 | – | – | Cn1ncc2cc3c(Nc4ccc(Cl)cc4)cccc3nc21 [Compound 622732]
1.03 | 21.8 | – | – | CN1CCN(CN2C(=O)C3C4C=CC(C3C2=O)C2C3C(=O)N(CN5CCN(C)CC5)C(=O)C3C42)CC1 (stereo not drawn) [Compound 361813]

SMILES | Int.* (Ratio) (Interference) [1] | Inh. (%) (Inhibition) (MBHA with DNA substrate) | Inh. (%) (Inhibition) (MBHA with a DNA substrate) | Int.* (Ratio) (Interference) [2]
Cl.NC(=O)c1cn(C2OC(CO)C(O)C2O)c2ncnc(N)c12 (stereo not drawn) [Compound 143648] | – | – | −4.1 | 0.99
COC1=C(C)C(=O)C2=C(C1=O)C(CO)N1C(C#N)C3CC4C(C1C2N1CCOC41)N3C (stereo not drawn) [Compound 349644] | – | – | 7.1 | 0.91
CCC[CH2][Pb]([Cl])([CH2]CCC)[CH2]CCC [Compound 168597] | 0.98 | 2.6 | – | –
CC(=O)O[C@@H]1C[C@H]2O[C@@H]3C=C(C)CC[C@]3(C)[C@]1(C)[C@]21CO1 [Compound 267033] | 1.04 | 6.7 | – | –
CC[C@@]1(O)C[C@H](OC2CC(N(C)C)C(O)C(C)O2)c2c(O)c3c(c(O)c2[C@H]1OC1CC(N(C)C)C(O)C(C)O1)C(=O)c1cccc(O)c1C3=O (stereo partly drawn) [Compound 136044] | 0.33 | 47.9 | – | –
CC[C@](C)(O)C(=O)O[C@H]1C(=O)O[C@@H]2C[C@H]3C(C)=C[C@H](O)[C@@H](O)[C@]3(C)[C@H]3[C@@]4(O)OC[C@]32[C@@H]1[C@@H](C)[C@H]4O [Compound 14975] | – | – | −20.8 | 1.03
COC1CC(OC2CCC3(C=O)C4CCC5(C)C(C6=CC(=O)OC6)CCC5(O)C4CCC3(O)C2)OC(C)C1OC1OC(CO)C(O)C(O)C1O (stereo not drawn) [Compound 4320] | 0.95 | −12.6 | – | –
CSC1SC[C@H]2C(=O)N(C)[C@@H](C(C)C)C(=O)OC[C@@H](NC(=O)c3cnc4ccccc4n3)C(=O)N[C@@H](C)C(=O)N(C)[C@@H]1C(=O)N(C)[C@@H](C(C)C)C(=O)OC[C@@H](NC(=O)c1cnc3ccccc3n1)C(=O)N[C@@H](C)C(=O)N2C (stereo partly drawn) [Compound 526417] | 0.86 | 55.2 | – | –
COc1cc2c(c3oc4cccc(O)c4c(=O)c13)[C@@H]1C=CO[C@@H]1O2 [Compound 204985] | 1.05 | 5.4 | – | –
